Data reported in patent US12668599B2, “Heterobifunctional compounds and methods of treating disease” (Halda Therapeutics OpCo, Inc., priority 2023, dated 2026).

Tests used:
[1] = molecular target: T1, androgen receptor and BRD4 protein (Homo sapiens, UniProt O60885+P10275); assay: Tumor TR-FRET trimer assay on tumors of the PK/PD Castrate VCaP model; assay type: in vivo, CB17.SCID mice; settings: PK/PD Castrate VCaP Tumor Xenograft Model
T1 construct: Tumors obtained from the Castrate VCaP Model were lysed; from tissue; host or cells: VCaP tumour xenografts grown in castrated CB17.SCID mice
Protocol: 5M VCaP cells were subcutaneously implanted into CB17.SCID mice in 50% Matrigel (Corning). Mice were castrated under anesthesia once tumor volumes reached 100 mm^3. Tumors were then allowed to reach an average of approximately 150 mm^3 before randomization into efficacy arms. Tumors were measured twice weekly for Tumor Growth Inhibition (TGI) calculation. For PK/PD analysis, tumors were allowed to reach an average of 400 mm^3, before dosing the mice with test compound by oral gavage (n=5) for seven days. Mice were sacrificed 24 hours following the final dose, and tumors were harvested for downstream analysis. Plasma samples were collected from all dosed mice 2 hours following the final dose to determine test compound exposure by LC-MS/MS. […] the United States Food and Drug Administration for treatment of prostate cancer ([…]).
Tumors obtained from the Castrate VCaP Model were lysed in Cell Signaling Technology lysis buffer supplemented with protease/phosphatase inhibitors and nuclease. Each tumor was lysed in 10 μL of lysis buffer per mg of tumor and placed in a TissueLyser for 4 minutes at 20 Hz. Each sample was spun down at 16000×g for 10 minutes, the supernatant was removed, and a BCA assay was run to quantify the total protein concentration in each sample. In a white opaque 384 well plate each sample was diluted in supplemented CST lysis buffer to 48 and 24 μg of protein in a total volume of 16 μL. 4 μL of a 1:1 mixture of anti-androgen receptor and anti-BRD4 antibodies with donor and acceptor fluorophores were mixed into each well containing tumor samples. The plate was spun down at 300×g for one minute, placed on a plate shaker at 400 RPM for 10 minutes, spun down at 300×g for one minute, then sealed with a plate seal and stored overnight. Approximately 16 hours after adding antibodies, the plate was read on an Envision plate reader. The ratiometric value of each well was calculated by dividing the acceptor signal by the donor signal and multiplying by 10,000.

[2] = molecular target: T2, androgen receptor (AR) and bromodomain-containing protein 4 (BRD4) protein (Homo sapiens, UniProt O60885+P10275); assay: Ternary complex formation in VCaP cells (AR capture antibody ELISA); assay type: cell-based; settings: FIG. 1
T2 construct: endogenous in cells; host or cells: VCaP cells
Protocol: Exemplary compounds were tested for ability to form a ternary complex containing a test compound, androgen receptor (AR), and bromodomain-containing protein 4 (BRD4) protein.
VCaP cells were cultured in ATCC DMEM medium supplemented with 10% ATCC fetal bovine serum, and 1% pen-strep (culture medium). 5000 cells were seeded in 100 μL of culture medium, per well in a clear 96-well poly-D-lysine coated plate. Plates were equilibrated to room temperature for 30 minutes. After equilibration, plates were incubated at 37° C. with 5% CO2 in a humidified tissue culture incubator. Black, opaque 96-well MaxiSorp plates were coated with 50 μL of a solution of androgen receptor antibody diluted in phosphate buffered saline (PBS). The coated plates were then quick-spun for 30 seconds before being sealed and placed in a fridge at 4° C. overnight. Test compounds were titrated in 100% DMSO the day before the experiment was performed and were left sealed in the dessicator overnight. QuantaRed™ Enhanced Chemifluorescent HRP Substrate Kit was taken out from 4° C. to warm up to room temperature. Plates coated with androgen receptor antibody were washed three times with 200 μL 1× Tris -Buffered Saline plus 0.1% Tween20 (TBST), then blocked with 200 μL 3% bovine serum albumin in TBST for approximately […] on a room temperature plate shaker at 500 rpm for 1 hour. […]

[3] = test system: VCaP cells; assay: Cellular growth inhibition assay for VCaP cells (CellTiter-Glo 2.0, 72 hours); assay type: cell-based, human

T1 sequence (P10275 whole entry, other chains not shown): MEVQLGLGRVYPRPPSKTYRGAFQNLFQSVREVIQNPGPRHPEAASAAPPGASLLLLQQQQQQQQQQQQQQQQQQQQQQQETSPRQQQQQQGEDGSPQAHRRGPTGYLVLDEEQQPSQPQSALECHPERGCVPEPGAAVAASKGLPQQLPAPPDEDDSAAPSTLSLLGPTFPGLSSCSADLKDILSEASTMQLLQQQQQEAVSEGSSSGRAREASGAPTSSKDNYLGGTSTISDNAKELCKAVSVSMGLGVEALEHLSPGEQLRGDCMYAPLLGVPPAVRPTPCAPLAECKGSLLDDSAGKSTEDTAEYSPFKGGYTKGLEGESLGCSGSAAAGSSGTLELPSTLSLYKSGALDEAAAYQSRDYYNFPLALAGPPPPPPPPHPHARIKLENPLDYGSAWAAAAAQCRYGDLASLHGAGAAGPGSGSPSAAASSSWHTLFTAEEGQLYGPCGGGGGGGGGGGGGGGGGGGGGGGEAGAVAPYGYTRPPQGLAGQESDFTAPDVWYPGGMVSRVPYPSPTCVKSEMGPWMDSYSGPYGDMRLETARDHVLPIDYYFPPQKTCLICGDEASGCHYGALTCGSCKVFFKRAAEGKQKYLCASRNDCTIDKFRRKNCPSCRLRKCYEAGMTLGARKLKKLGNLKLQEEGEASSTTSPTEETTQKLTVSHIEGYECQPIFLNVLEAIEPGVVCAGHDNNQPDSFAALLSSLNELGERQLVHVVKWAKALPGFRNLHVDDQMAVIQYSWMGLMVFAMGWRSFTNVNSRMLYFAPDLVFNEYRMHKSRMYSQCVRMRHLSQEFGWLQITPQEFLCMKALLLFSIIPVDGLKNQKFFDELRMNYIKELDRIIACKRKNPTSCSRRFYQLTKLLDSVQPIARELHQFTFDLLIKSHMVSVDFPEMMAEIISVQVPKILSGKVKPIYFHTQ
T2 sequence (P10275 whole entry, other chains not shown): as above

## COc1cc(O[C@H]2C(C)(C)[C@H](NC(=O)c3cnc(N4CCC5(CC4)CC(Oc4ccc(C6=N[C@@H](Cc7ncco7)c7nnc(C)n7-c7sc(C)c(C)c76)cc4)C5)nc3)C2(C)C)ccc1C#N [II-5, N-[(1r,3r)-3-(4-cyano-3-methoxy-phenoxy)-2,2,4,4-tetramethyl-cyclobutyl]-2-[2-[4-[(9S)-4,5,13-trimethyl-9-(oxazol-2-ylmethyl)-3-thia-1,8,11,12-tetrazatricyclo[8.3.0.0^2,6]trideca-2 (6),4,7,10,12-pentaen-7-yl]phenoxy]-7-azaspiro[3.5]nonan-7-yl]pyrimidine-5-carboxamide]
[1]; oral gavage for seven days, varying doses, FIG. 4
  ternary complex formation between compound, androgen receptor, and BRD4 protein in tumors: observed
[1]; Compound II-5 and Compound B at the same dose and dosing frequency, FIG. 20
  ternary complex formation between compound, androgen receptor, and BRD4 protein in tumors: observed
[2]
  ternary complex formation between test compound, androgen receptor, and BRD4: detected
[3]; GI50 of the top compound in the pair divided by GI50 of the lower compound
  Ratio of GI50's: 1
[3]; Homo sapiens, VCaP, 72 h, CellTiter-Glo 2.0
  GI50: < 500 nM
